For 2 compounds, IC50, EC50 and AC50 results are on record in ChEMBL document CHEMBL1201862, “PubChem BioAssay data set” (2004).

Test [1] can be described thus: HEK-293T viability loss, compound-treated – cell-based, uHTS hits, cytotoxicity control for B/T-cell NF-kB inhibitor project, dose response (AID 489019).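 Further: IC50 reflects cytotoxicity as loss of cell viability.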 It is filed as functional.
Test [2] has as its target T1, Ubiquitin-conjugating enzyme E2 N (Homo sapiens, UniProt P61088).
T1 sequence (P61088 whole entry): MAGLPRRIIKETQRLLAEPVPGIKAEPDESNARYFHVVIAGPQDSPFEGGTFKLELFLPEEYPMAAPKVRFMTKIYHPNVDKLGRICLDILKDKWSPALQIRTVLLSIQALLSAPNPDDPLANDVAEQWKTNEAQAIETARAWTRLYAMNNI
It is filed as functional.

Another test concerns Streptococcus. As to the kind of experiment: GAS UMAA2166 growth inhibition – luminescence, BacTiterGlo, counter-screen for streptokinase expression inhibitor project, dose response (AID 1915).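 Further: potency for reduction of bacterial viability or growth.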 It is filed as functional, organism-based.
The nature of test [3]: HIV-1 AD8 envelope cell-cell fusion blockers – cherry-pick, dose response (AID 652062).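 Further: luciferase signal from cell-cell fusion driven by HIV-1 clade B AD8 Env; potency is for inhibitors of fusion seen as a drop in luminescence.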 It is filed as functional, cell-based.
The target of test [4] is T2, Replicative DNA helicase DnaB (Mycobacterium tuberculosis, UniProt P9WMR3).
T2 sequence (P9WMR3 whole entry): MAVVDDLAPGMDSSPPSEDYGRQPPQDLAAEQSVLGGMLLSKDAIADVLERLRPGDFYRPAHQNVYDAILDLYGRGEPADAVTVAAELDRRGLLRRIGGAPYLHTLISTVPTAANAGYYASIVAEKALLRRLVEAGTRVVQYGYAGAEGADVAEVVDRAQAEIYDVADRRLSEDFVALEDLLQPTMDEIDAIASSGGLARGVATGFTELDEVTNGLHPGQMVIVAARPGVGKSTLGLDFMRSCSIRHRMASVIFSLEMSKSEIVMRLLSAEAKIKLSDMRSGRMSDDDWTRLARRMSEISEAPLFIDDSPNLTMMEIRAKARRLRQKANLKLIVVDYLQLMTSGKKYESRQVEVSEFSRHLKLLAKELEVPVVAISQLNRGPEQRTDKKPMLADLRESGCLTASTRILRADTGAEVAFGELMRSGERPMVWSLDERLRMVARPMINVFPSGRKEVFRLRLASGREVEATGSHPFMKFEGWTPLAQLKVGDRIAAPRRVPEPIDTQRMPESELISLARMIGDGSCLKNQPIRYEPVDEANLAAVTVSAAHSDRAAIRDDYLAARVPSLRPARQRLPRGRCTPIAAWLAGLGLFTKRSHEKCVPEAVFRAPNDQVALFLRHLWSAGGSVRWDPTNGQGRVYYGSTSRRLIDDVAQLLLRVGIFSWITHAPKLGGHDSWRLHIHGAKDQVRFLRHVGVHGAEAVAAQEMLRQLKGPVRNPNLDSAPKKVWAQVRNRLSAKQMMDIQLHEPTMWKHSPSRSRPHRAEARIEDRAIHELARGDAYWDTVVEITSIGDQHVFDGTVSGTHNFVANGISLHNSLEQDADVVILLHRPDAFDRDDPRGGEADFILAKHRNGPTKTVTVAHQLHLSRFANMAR
Kind of test: DnaB intein splicing inhibitors, dose response, biochemical, cell-free fluorescence (AID 449749). It is filed as functional.

For the next test, the system named is HeLa. As to the kind of experiment: viability loss in HeLa cells – cell-based, 24 h, cherry-picked samples, cytotoxicity control, dose response (AID 504726).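 Further: potency for cytotoxicity as loss of luminescence signal.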 It is filed as functional. Particulars: Homo sapiens.
For test [5], the target named is Matrix metalloproteinase-14 (Homo sapiens, UniProt P50281). Kind of test: Dose Response confirmation of uHTS hits for a small molecule inhibitors of MT1-MMP activation in a fluorescence assay set 2. It is filed as functional.
Test [6] has as its target T3, Alkaline phosphatase, tissue-nonspecific isozyme (Homo sapiens, UniProt P05186).
T3 sequence (P05186 whole entry): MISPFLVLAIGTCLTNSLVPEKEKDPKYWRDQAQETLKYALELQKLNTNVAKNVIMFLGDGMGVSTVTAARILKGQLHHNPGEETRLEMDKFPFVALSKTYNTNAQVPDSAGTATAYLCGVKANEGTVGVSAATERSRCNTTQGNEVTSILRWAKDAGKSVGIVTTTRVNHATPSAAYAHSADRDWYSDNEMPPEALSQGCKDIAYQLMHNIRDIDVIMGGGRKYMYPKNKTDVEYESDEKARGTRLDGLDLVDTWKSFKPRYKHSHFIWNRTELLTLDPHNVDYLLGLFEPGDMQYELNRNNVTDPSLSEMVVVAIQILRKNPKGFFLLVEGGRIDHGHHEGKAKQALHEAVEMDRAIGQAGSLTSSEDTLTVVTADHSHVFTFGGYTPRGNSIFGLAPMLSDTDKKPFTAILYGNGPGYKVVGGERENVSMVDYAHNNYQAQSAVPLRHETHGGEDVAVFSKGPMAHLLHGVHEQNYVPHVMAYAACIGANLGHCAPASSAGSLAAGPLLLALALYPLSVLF
As to the kind of experiment: TNAP enzyme inhibition by screening hits, dose response, selectivity assay for mouse IAP inhibitor project, biochemical, human TNAP, uHTS hits (AID 488906). It is filed as functional.

The target in the next test is Nonstructural protein 1 (Influenza A virus, UniProt Q194T2). It is filed as functional, Influenza A virus (A/California/07/2009(H1N1)).
In test [7] the target is T4, Fatty acid synthase (Homo sapiens, UniProt P49327). As to the kind of experiment: inhibition of human FAS-TE enzyme activity – biochemical, kinetic fluorescence intensity, dose response (AID 624326).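 Further: rate of fluorescence rise from hydrolysis of a fluorogenic O-methyl fluorescein ester substrate.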 It is filed as functional.
For test [8], the target named is Lysine-specific demethylase 4A (Homo sapiens, UniProt O75164). As to the kind of experiment: inhibition of JMJD2A H3K9me3 demethylation – biochemical, DELFIA europium, cherry-picked samples, selectivity assay for GASC-1 inhibitor project, dose response (AID 488840).
Test [9] deals with T4, Fatty acid synthase. As to the kind of experiment: inhibition of human FAS-TE enzyme activity – biochemical, endpoint fluorescence intensity, uHTS hits, dose response (AID 624327).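 Further: fluorescence from hydrolysis of an O-methyl fluorescein acyl ester substrate by the enzyme.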 It is filed as functional.
The target of test [10] is Intestinal-type alkaline phosphatase (Homo sapiens, UniProt P09923). As to the kind of experiment: inhibition of human intestinal alkaline phosphatase – biochemical, dose response (AID 488876). It is filed as functional.
The next test has as its target Troponin, cardiac muscle (Homo sapiens, UniProt P19429+P45379+P63316). Kind of test: compounds desensitizing RTF to calcium – biochemical, fluorescence, cardiac regulated thin filaments, triplicate IC50, dose response (AID 504742). It is filed as protein-complex assay.
The target of test [11] is 1-phosphatidylinositol 4,5-bisphosphate phosphodiesterase beta-3 (Homo sapiens, UniProt Q01970). As to the kind of experiment: Fluorescence-based biochemical high throughput dose response assay to identify inhibitors of phospholipase C isozymes (PLC-B3).
A further test concerns the target Caspase-8 (Homo sapiens, UniProt Q14790). Kind of test: inhibitors of purified CASP8 protease – biochemical, Z-IETD-R110 fluorescence, cherry-picked samples, selectivity assay for caspase-6 inhibitor project, dose response (AID 743294).
Test [12] deals with 1-phosphatidylinositol 4,5-bisphosphate phosphodiesterase gamma-1 (Homo sapiens, UniProt P19174). As to the kind of experiment: Counterscreen for inhibitors of phospholipase C isozymes (PLC-B3): Fluorescence-based biochemical high throughput dose response assay to identify inhibitors of phospholipase C isozymes (PLC-gamma1). In general terms: The purpose of a counterscreen is to sort out artefacts and off-target activity.

Another test has as its target Genome polyprotein (dengue virus type 2, UniProt P29990). Kind of test: flavivirus cap methylation enzyme inhibition – biochemical, confirmation dose response, primary screen (AID 588689). It is filed as functional.

SMILES strings stand for the structures. Activity calls are given as the source filed them.

The term IC50 denotes the point on the concentration scale where inhibition reaches its midpoint. By EC50 is commonly meant the concentration that produces a half-maximal response. As usually defined, the AC50 is the midpoint of the concentration-response curve, whichever way the signal moves. Consider `CCCCCCCCCCOC(=O)C[n+]1c(COc2ccccc2OC)n(C)c2ccccc21`, for which the IC50 in test [1] was 54.4 µM (inactive); in test [2], 15.1 µM (active). Further, the EC50 in the test with Streptococcus was 12.7 µM (active). Also, the AC50 is 4.02 µM (active) in test [3] and 3.92 µM (active) in test [4].
Consider `O=c1ccc2c(-c3ccccc3S(=O)(=O)O)c3ccc(O)c(O)c3oc-2c1O` [PYROGALLOL RED], for which the results for the AC50 (with HeLa; in test [8]; at Caspase-8) were 8.94 µM (active), 2.63 µM (active) and > 70 µM (inactive), respectively. Further, the IC50 in test [5] is 19.6 µM (active); in test [6] it was 24.1 µM (active); at Nonstructural protein 1, 13.5 µM (active); on Fatty acid synthase [7], 10.4 µM (active); on Fatty acid synthase [9], 16.2 µM (active); in test [10] it was > 100 µM (inactive). Moreover, the half-maximal inhibitory concentration (IC50) at Troponin, cardiac muscle was 0.558 µM (active); in test [11], > 40.8 µM (inactive); in test [12], 14.2 µM (inactive); on Genome polyprotein, 4.06 µM (active).
